Measurements: patent publication US10906873B2, “Substituted cyclic amides as herbicides” (FMC Corporation, priority 2015, dated 2021)

Experiments:
Type in all cases: in vivo
[1] = tested on: pigweed (Amaranthus retroflexus); assay: Test A preemergence, pigweed; conditions: 0 to 100 scale
Outline: (§1)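 Visual injury rating, 0–100 scale (100 = complete control), ~10 d after treatment, relative to untreated controls. Greenhouse pots, loam soil/sand; compound in solvent mix with surfactant applied as soil spray preemergence or foliar postemergence at 1–2-leaf stage.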

[2] = tested on: wheat (Triticum aestivum); assay: Test A postemergence, wheat; conditions: 0 to 100 scale
Outline: as §1

[3] = tested on: blackgrass (Alopecurus myosuroides); assay: Test A postemergence, blackgrass; conditions: 0 to 100 scale
Outline: as §1

[4] = tested on: galium (catchweed bedstraw, Galium aparine); assay: Test A postemergence, galium; conditions: 0 to 100 scale
Outline: as §1

[5] = tested on: corn (Zea mays); assay: Test A postemergence, corn; conditions: 0 to 100 scale
Outline: as §1

[6] = tested on: ragweed (common ragweed, Ambrosia elatior); assay: Test A postemergence, ragweed; conditions: 0 to 100 scale
Outline: as §1

[7] = tested on: rice (Oryza sativa); assay: Test B flooded paddy test, rice; conditions: Flood, 250 g ai/ha; scale of 0 to 100 where 0 is no effect and 100 is complete control; 13 to 15 d
Outline: (§2)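 Plants grown to the 2-leaf stage. At treatment, pots were flooded to 3 cm above the soil, compound was applied directly to the paddy water, and that depth was held throughout. After 13 to 15 d in the greenhouse, response was rated visually against controls on a 0 (no effect) to 100 (complete control) scale.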

[8] = tested on: ragweed (common ragweed, Ambrosia elatior); assay: Test A preemergence, ragweed; conditions: 0 to 100 scale
Outline: as §1

[9] = tested on: ryegrass, It. (Italian ryegrass, Lolium multiflorum); assay: Test A preemergence, ryegrass, It.; conditions: 0 to 100 scale
Outline: as §1

[10] = tested on: ducksalad (Heteranthera limosa); assay: Test B flooded paddy test, ducksalad; conditions: Flood, 250 g ai/ha; scale of 0 to 100 where 0 is no effect and 100 is complete control; 13 to 15 d
Outline: as §2

[11] = tested on: ryegrass, It. (Italian ryegrass, Lolium multiflorum); assay: Test A postemergence, ryegrass, It.; conditions: 0 to 100 scale
Outline: as §1

[12] = tested on: kochia (Kochia scoparia); assay: Test A preemergence, kochia; conditions: 0 to 100 scale
Outline: as §1

[13] = tested on: pigweed (Amaranthus retroflexus); assay: Test A postemergence, pigweed; conditions: 0 to 100 scale
Outline: as §1

[14] = tested on: barnyardgrass (Echinochloa crus-galli); assay: Test A postemergence, barnyardgrass; conditions: 0 to 100 scale
Outline: as §1

[15] = tested on: kochia (Kochia scoparia); assay: Test A postemergence, kochia; conditions: 0 to 100 scale
Outline: as §1

[16] = tested on: foxtail, giant (giant foxtail, Setaria faberii); assay: Test A postemergence, foxtail, giant; conditions: 0 to 100 scale
Outline: as §1

[17] = tested on: sedge, umbrella (small-flower umbrella sedge, Cyperus difformis); assay: Test B flooded paddy test, sedge, umbrella; conditions: Flood, 250 g ai/ha; scale of 0 to 100 where 0 is no effect and 100 is complete control; 13 to 15 d
Outline: as §2

[18] = tested on: foxtail, giant (giant foxtail, Setaria faberii); assay: Test A preemergence, foxtail, giant; conditions: 0 to 100 scale
Outline: as §1

[19] = tested on: barnyardgrass (Echinochloa crus-galli); assay: Test A preemergence, barnyardgrass; conditions: 0 to 100 scale
Outline: as §1

[20] = tested on: barnyardgrass (Echinochloa crus-galli); assay: Test B flooded paddy test, barnyardgrass; conditions: Flood, 250 g ai/ha; scale of 0 to 100 where 0 is no effect and 100 is complete control; 13 to 15 d
Outline: as §2

SMILES | Plant response rating, Pigweed ([1]; 125 g ai/ha) | Plant response rating, Pigweed ([1]; 500 g ai/ha) | Plant response rating, Wheat ([2]; 125 g ai/ha) | Plant response rating, Wheat ([2]; 500 g ai/ha) | Plant response rating, Blackgrass ([3]; 125 g ai/ha) | Plant response rating, Blackgrass ([3]; 500 g ai/ha) | Plant response rating, Galium ([4]; 125 g ai/ha) | Plant response rating, Galium ([4]; 500 g ai/ha) | Plant response rating, Corn ([5]; 125 g ai/ha) | Plant response rating, Corn ([5]; 500 g ai/ha) | Plant response rating, Ragweed ([6]; 125 g ai/ha) | Plant response rating, Ragweed ([6]; 500 g ai/ha) | Plant response rating, Rice [7] | Plant response rating, Ragweed ([8]; 125 g ai/ha) | Plant response rating, Ragweed ([8]; 500 g ai/ha) | Plant response rating, Ryegrass, It. ([9]; 125 g ai/ha) | Plant response rating, Ryegrass, It. ([9]; 500 g ai/ha) | Plant response rating, Ducksalad [10] | Plant response rating, Ryegrass, It. ([11]; 125 g ai/ha) | Plant response rating, Ryegrass, It. ([11]; 500 g ai/ha) | also measured
Cc1cccc(C#CC2CNC(=O)C2C(=O)Nc2cccc(F)c2F)c1 (stereo not drawn) [Compound 22] | 0 | 0 | 0 | 0 | 0 | 0 | 0 | 20 | 0 | 20 | 0 | 0 | 0 | 0 | 0 | 0 | 0 | 70 | 0 | 0 | Plant response rating, Kochia ([12]; 125 g ai/ha): 0; Plant response rating, Kochia ([12]; 500 g ai/ha): 20; Plant response rating, Pigweed ([13]; 125 g ai/ha): 0; Plant response rating, Pigweed ([13]; 500 g ai/ha): 0; Plant response rating, Barnyardgrass ([14]; 125 g ai/ha): 40; Plant response rating, Barnyardgrass ([14]; 500 g ai/ha): 70; Plant response rating, Kochia ([15]; 125 g ai/ha): 0; Plant response rating, Kochia ([15]; 500 g ai/ha): 0; Plant response rating, Foxtail, Giant ([16]; 125 g ai/ha): 20; Plant response rating, Foxtail, Giant ([16]; 500 g ai/ha): 50; Plant response rating, Sedge, Umbrella [17]: 0; Plant response rating, Foxtail, Giant ([18]; 125 g ai/ha): 50; Plant response rating, Foxtail, Giant ([18]; 500 g ai/ha): 70; Plant response rating, Barnyardgrass ([19]; 125 g ai/ha): 60; Plant response rating, Barnyardgrass ([19]; 500 g ai/ha): 80; Plant response rating, Barnyardgrass [20]: 0
Cc1cccc(C#CC2CNC(=O)C2C(=O)Nc2ccc(F)c(F)c2F)c1 (stereo not drawn) [Compound 23] | 0 | 0 | 0 | 0 | 0 | 0 | 0 | 20 | 0 | 0 | 0 | 0 | 0 | 0 | 0 | 0 | 0 | 0 | 0 | 0 | Plant response rating, Kochia ([12]; 125 g ai/ha): 0; Plant response rating, Kochia ([12]; 500 g ai/ha): 0; Plant response rating, Pigweed ([13]; 125 g ai/ha): 0; Plant response rating, Pigweed ([13]; 500 g ai/ha): 0; Plant response rating, Barnyardgrass ([14]; 125 g ai/ha): 20; Plant response rating, Barnyardgrass ([14]; 500 g ai/ha): 50; Plant response rating, Kochia ([15]; 125 g ai/ha): 0; Plant response rating, Kochia ([15]; 500 g ai/ha): 20; Plant response rating, Foxtail, Giant ([16]; 125 g ai/ha): 20; Plant response rating, Foxtail, Giant ([16]; 500 g ai/ha): 50; Plant response rating, Sedge, Umbrella [17]: 0; Plant response rating, Foxtail, Giant ([18]; 125 g ai/ha): 40; Plant response rating, Foxtail, Giant ([18]; 500 g ai/ha): 80; Plant response rating, Barnyardgrass ([19]; 125 g ai/ha): 60; Plant response rating, Barnyardgrass ([19]; 500 g ai/ha): 80; Plant response rating, Barnyardgrass [20]: 0
O=C1NCC(C#Cc2cccc(Cl)c2)C1C(=O)Nc1ccccc1F (stereo not drawn) [Compound 25, 4-[2-(3-chlorophenyl)ethynyl]N-(2-fluorophenyl)-2-oxo-3-pyrrolidinecarboxamide] | 0 | 50 | 0 | 0 | 0 | 0 | 0 | 60 | 0 | 0 | 0 | 0 | 20 | 0 | 0 | 0 | 0 | 85 | 0 | 0 | Plant response rating, Kochia ([12]; 125 g ai/ha): 0; Plant response rating, Kochia ([12]; 500 g ai/ha): 60; Plant response rating, Pigweed ([13]; 125 g ai/ha): 0; Plant response rating, Pigweed ([13]; 500 g ai/ha): 20; Plant response rating, Barnyardgrass ([14]; 125 g ai/ha): 40; Plant response rating, Barnyardgrass ([14]; 500 g ai/ha): 70; Plant response rating, Kochia ([15]; 125 g ai/ha): 0; Plant response rating, Kochia ([15]; 500 g ai/ha): 0; Plant response rating, Foxtail, Giant ([16]; 125 g ai/ha): 30; Plant response rating, Foxtail, Giant ([16]; 500 g ai/ha): 80; Plant response rating, Sedge, Umbrella [17]: 0; Plant response rating, Foxtail, Giant ([18]; 125 g ai/ha): 40; Plant response rating, Foxtail, Giant ([18]; 500 g ai/ha): 90; Plant response rating, Barnyardgrass ([19]; 125 g ai/ha): 60; Plant response rating, Barnyardgrass ([19]; 500 g ai/ha): 90; Plant response rating, Barnyardgrass [20]: 0
O=C1NCC(C#Cc2cccc(Cl)c2)C1C(=O)Nc1ccc(F)c(F)c1F (stereo not drawn) [Compound 26] | 0 | 40 | 0 | 0 | 0 | 0 | 0 | 0 | 0 | 0 | 0 | 0 | 0 | 0 | 0 | 0 | 0 | 75 | 0 | 0 | Plant response rating, Kochia ([12]; 125 g ai/ha): 0; Plant response rating, Kochia ([12]; 500 g ai/ha): 0; Plant response rating, Pigweed ([13]; 125 g ai/ha): 0; Plant response rating, Pigweed ([13]; 500 g ai/ha): 0; Plant response rating, Barnyardgrass ([14]; 125 g ai/ha): 0; Plant response rating, Barnyardgrass ([14]; 500 g ai/ha): 60; Plant response rating, Kochia ([15]; 125 g ai/ha): 0; Plant response rating, Kochia ([15]; 500 g ai/ha): 0; Plant response rating, Foxtail, Giant ([16]; 125 g ai/ha): 0; Plant response rating, Foxtail, Giant ([16]; 500 g ai/ha): 40; Plant response rating, Sedge, Umbrella [17]: 0; Plant response rating, Foxtail, Giant ([18]; 125 g ai/ha): 0; Plant response rating, Foxtail, Giant ([18]; 500 g ai/ha): 70; Plant response rating, Barnyardgrass ([19]; 125 g ai/ha): 0; Plant response rating, Barnyardgrass ([19]; 500 g ai/ha): 70; Plant response rating, Barnyardgrass [20]: 0
